Experimental findings from the NIST ThermoML archive (doi:10.1016/j.tca.2014.05.034) are described below.

The conditions of series [1]: 100 kPa, Liquid; for kinematic viscosity: Capillary tube (Ostwald / Ubbelohde) method; for mass density: Pycnometric method.
Series [2] in a line: xn = mol fraction of the nth substance listed. The conditions noted are these: 100 kPa, Liquid, x2 = 0; for kinematic viscosity: Capillary tube (Ostwald / Ubbelohde) method; for mass density: Pycnometric method.

Each structure is given as a SMILES string. Numbers after ± are expanded uncertainties.

As usually defined, the mass density is mass per unit of volume.

In the case of `NCCN` [ethane-1,2-diamine], the kinematic viscosity in series [1] (298.15 K) stood at 1.56e-06 ± 1e-08 m2/s; in series [1] (303.15 K), 1.39e-06 ± 1e-08 m2/s; in series [1] (308.15 K) it was 1.27e-06 ± 1e-08 m2/s; in series [1] (313.15 K) it was 1.17e-06 ± 1e-08 m2/s; in series [1] (318.15 K), 1.08e-06 ± 1e-08 m2/s. Moreover, the mass density in series [1] (298.15 K) worked out at 893.3 ± 0.7 kg/m3; in series [1] (303.15 K), 888.8 ± 0.7 kg/m3; in series [1] (308.15 K), 884.9 ± 0.7 kg/m3; in series [1] (313.15 K), 880 ± 0.7 kg/m3; in series [1] (318.15 K), 875.2 ± 0.7 kg/m3.
On to `OCCOCCO` [diethylene glycol] + NCCN, for which the kinematic viscosity in series [2] (298.15 K) amounted to 2.47e-05 ± 2e-07 m2/s; in series [2] (303.15 K), 1.96e-05 ± 2e-07 m2/s; in series [2] (308.15 K), 1.53e-05 ± 1e-07 m2/s; in series [2] (313.15 K), 1.29e-05 ± 1e-07 m2/s; in series [2] (318.15 K), 1.1e-05 ± 1e-07 m2/s. Besides, the mass density in series [2] (298.15 K) came to 1112.8 ± 0.7 kg/m3; in series [2] (303.15 K), 1109.2 ± 0.7 kg/m3; in series [2] (308.15 K), 1105.6 ± 0.7 kg/m3; in series [2] (313.15 K), 1102.3 ± 0.7 kg/m3; in series [2] (318.15 K), 1099.2 ± 0.7 kg/m3.
In the case of `OCCOCCO` [diethylene glycol], the kinematic viscosity in series [1] (298.15 K) was 2.47e-05 ± 2e-07 m2/s; in series [1] (303.15 K), 1.96e-05 ± 2e-07 m2/s; in series [1] (308.15 K), 1.53e-05 ± 1e-07 m2/s; in series [1] (313.15 K) it was 1.29e-05 ± 1e-07 m2/s; in series [1] (318.15 K), 1.1e-05 ± 1e-07 m2/s. The mass density in series [1] (298.15 K) is given as 1112.8 ± 0.7 kg/m3; in series [1] (303.15 K), 1109.2 ± 0.7 kg/m3; in series [1] (308.15 K), 1105.6 ± 0.7 kg/m3; in series [1] (313.15 K), 1102.3 ± 0.7 kg/m3; in series [1] (318.15 K), 1099.2 ± 0.7 kg/m3.
